# According to patent US11485736B2 (KSQ Therapeutics, Inc., priority 2018, dated 2022):
# Where two headings read alike, the source gives them in different places.
# Experiments:
# [1] = ADME solubility determination at pH 2.0 and pH 7.4; type: physicochemical; conditions: aqueous buffer, thermodynamic from solid, LC-MS/MS
# Method in brief: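 Dried residues of 10 mM DMSO stocks were shaken in PBS pH 7.4 or pH 2.0 for 24 hours at 25° C. and 1,100 rpm. After centrifugation, supernatants were quantified by LC-MS/MS against a standard of known concentration, applying a dilution factor.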
# [2] = Liver microsomal stability, human liver microsomes; type: in vitro ADME; conditions: 1 μM compound, NADPH, read-out: t1/2 (min) in HLM
# Method in brief: (§1)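 Compound (1 μM final) was incubated with prewarmed human or rat liver microsomes (1 mg/mL in 100 mM phosphate master mix) plus NADPH; aliquots at 0.5–30 minutes were quenched in cold acetonitrile and quantified by LC-MS/MS. Half-life came from the ln(% remaining) versus time slope, converted to CLint (μL/min/mg prot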
# [3] = Liver microsomal stability, rat liver microsomes; type: in vitro ADME; conditions: 1 μM compound, NADPH, read-out: t1/2 (min) in RLM
# Method in brief: as §1
# [4] = PBS pH 2.0, shaken at 25° C. for 24 hours, read-out: Solubility at pH 2.0
# [5] = PBS pH 7.4, shaken at 25° C. for 24 hours, read-out: Solubility at pH 7.4
SMILES,"solubility at 24 h [1, 4]","solubility at 24 h [1, 5]",half-life at 1 μM [2],half-life at 1 μM [3],"solubility at 24 h ([1]; phosphate buffered saline, PBS pH 2.0, shaken at 25° C. for 24 hours, read-out: Solubility at pH 2.0)","solubility at 24 h ([1]; phosphate buffered saline, PBS pH 7.4, shaken at 25° C. for 24 hours, read-out: Solubility at pH 7.4)"
CCn1cc(C(F)(F)F)nc1-c1ccc(Cn2ncc3cnc(-c4c(OC)ncnc4C4CC4)nc32)cc1OC [Example 128],> 10 µM,> 10 µM,> 25 min,< 25 min,,
CCOc1ncnc(OC)c1-c1ncc2cnn(Cc3ccc(-c4nc(C(F)(F)F)cn4CC)cc3)c2n1 [Example 113],> 10 µM,> 10 µM,> 25 min,< 25 min,,
"CCS(=O)(=O)c1ccccc1-c1ncc2cnn(Cc3ccc(-c4nc(C(F)(F)F)cn4C)cc3)c2n1 [Example 7, 6-(2-(ethylsulfonyl)phenyl)-1-(4-(1-methyl-4-(trifluoromethyl)-1H-imidazol-2-yl)benzyl)-1H-pyrazolo[3,4-d]pyrimidine]",< 10 µM,< 10 µM,> 25 min,< 25 min,,
[2H]C([2H])([2H])C([2H])(n1cc(C(F)(F)F)nc1-c1ccc(Cn2ncc3cnc(-c4c(OC)ncnc4C4CC4)nc32)cc1)C([2H])([2H])[2H] [Example 140],< 10 µM,< 10 µM,> 25 min,> 25 min,,
CCOc1cc(C(F)(F)F)nn1-c1ccc(Cn2ncc3cnc(-c4c(OC)ncnc4C4CC4)nc32)cc1 [Example 76],< 10 µM,< 10 µM,> 25 min,> 25 min,,
COc1ncnc(C2CC2)c1-c1ncc2cnn(Cc3ccc(-n4nc(C(F)(F)F)cc4C)cc3)c2n1 [Example 27],< 10 µM,< 10 µM,> 25 min,> 25 min,,
"CCn1cc(C(F)(F)F)nc1-c1ccc([C@H](C)n2ncc3cnc(-c4c(OC)ncnc4C4CC4)nc32)cc1 (single isomer, unassigned) [Example 94]",> 10 µM,< 10 µM,> 25 min,< 25 min,,
CCn1cc(C(F)(F)F)nc1-c1ccc(Cn2ncc3c(OC)nc(-c4c(OC)ncnc4C4CC4)nc32)cc1 [Example 52],< 10 µM,< 10 µM,> 25 min,< 25 min,,
CCn1cc(C(F)(F)F)nc1-c1ccc(Cn2ncc3cnc(-c4c(OC)cnn4C4CC4)nc32)cc1 [Example 82],< 10 µM,< 10 µM,< 25 min,< 25 min,,
COc1ncnc(C2CC2)c1-c1ncc2c(OC)nn(Cc3ccc(-c4cn(C(C)C)c(C(F)(F)F)n4)cc3)c2n1 [Example 185],< 10 µM,< 10 µM,> 25 min,> 25 min,,
CCn1cc(C(F)(F)F)nc1-c1ccc([C@H](C)n2nc(OC)c3cnc(-c4c(OC)ncnc4C4CC4)nc32)cc1 [Example 180],< 10 µM,< 10 µM,> 25 min,> 25 min,,
COc1cn(C(C)C)c(-c2ccc(Cn3ncc4cnc(-c5c(OC)ncnc5C5CC5)nc43)cc2)n1 [Example 74],> 10 µM,> 10 µM,< 25 min,< 25 min,,
"CCn1cc(C(F)(F)F)nc1-c1ccc(Cn2nc(SCc3ccc(OC)cc3)c3cnc(-c4c(OC)ncnc4C4CC4)nc32)cc1 [Example 192, 6-(4-cyclopropyl-6-methoxypyrimidin-5-yl)-1-(4-(1-ethyl-4-(trifluoromethyl)-1H-imidazol-2-yl)benzyl)-3-((4-methoxybenzyl)thio)-1H-pyrazolo[3,4-d]pyrimidine]",< 10 µM,< 10 µM,< 25 min,< 25 min,,
COc1ncnc(C2CC2)c1-c1ncc2cnn(Cc3ccc(-c4nc(C(F)(F)F)cn4C4CCC4)cc3)c2n1 [Example 144],< 10 µM,< 10 µM,> 25 min,< 25 min,,
[2H]C([2H])([2H])Oc1ncnc(C2CC2)c1-c1ncc2cnn(Cc3ccc(-c4nc(C(F)(F)F)cn4CC)cc3)c2n1 [Example 67],> 10 µM,< 10 µM,> 25 min,> 25 min,,
COc1ncnc(C2CC2)c1-c1ncc2cnn(Cc3ccc(-c4nc(C(F)(F)F)cn4CCF)cc3)c2n1 [Example 137],> 10 µM,> 10 µM,> 25 min,> 25 min,,
CCn1cc(C(F)(F)F)nc1-c1ccc(Cn2ncc3cnc(-c4c(C5CC5)cnn4CC)nc32)cc1 [Example 68],< 10 µM,< 10 µM,< 25 min,< 25 min,,

# Continued, values first:
"solubility at 24 h [1, 4]","solubility at 24 h [1, 5]",half-life at 1 μM [2],half-life at 1 μM [3],"solubility at 24 h ([1]; phosphate buffered saline, PBS pH 2.0, shaken at 25° C. for 24 hours, read-out: Solubility at pH 2.0)","solubility at 24 h ([1]; phosphate buffered saline, PBS pH 7.4, shaken at 25° C. for 24 hours, read-out: Solubility at pH 7.4)",SMILES
< 10 µM,< 10 µM,> 25 min,< 25 min,,,"CCn1cc(C(F)(F)F)nc1-c1ccc(Cn2nc(Br)c3cnc(-c4c(OC)ncnc4C4CC4)nc32)cc1 [Example 170, 3-bromo-6-(4-cyclopropyl-6-methoxypyrimidin-5-yl)-1-(4-(1-ethyl-4-(trifluoromethyl)-1H-imidazol-2-yl)benzyl)-1H-pyrazolo[3,4-d]pyrimidine]"
> 10 µM,< 10 µM,> 25 min,< 25 min,,,COc1ncnc(C2CC2)c1-c1ncc2cnn(Cc3ccc(-c4nc(C(F)(F)F)cn4CC(C)F)cc3)c2n1 (stereo not drawn) [Example 142]
< 10 µM,< 10 µM,< 25 min,< 25 min,,,CCn1cc(C(F)(F)F)nc1-c1ccc(Cn2ncc3cnc(-c4c(OC(C)(C)C)ncnc4C4CC4)nc32)cc1 [Example 59]
< 10 µM,< 10 µM,< 25 min,< 25 min,,,"CCn1cc(C#N)nc1-c1ccc(Cn2ncc3cnc(-c4c(OC)ncnc4C4CC4)nc32)cc1 [Example 148, 2-(4-((6-(4-cyclopropyl-6-methoxypyrimidin-5-yl)-1H-pyrazolo[3,4-d]pyrimidin-1-yl)methyl)phenyl)-1-ethyl-1H-imidazole-4-carbonitrile]"
> 10 µM,< 10 µM,< 25 min,> 25 min,,,COc1ncnc(C2CC2)c1-c1ncc2nc(C)n(Cc3ccc(-c4nc(C(F)(F)F)cn4C)cc3)c2n1 [Example 206]
,,> 25 min,> 25 min,> 10 µM,< 10 µM,COc1ncnc(C2CC2)c1-c1ncc2cnn(Cc3ccc(-c4nc(C(F)(F)F)nn4C)cc3)c2n1 [Example 56]
< 10 µM,< 10 µM,< 25 min,< 25 min,,,COc1ncnc(C(C)C)c1-c1ncc2cnn(Cc3ccc(-n4nc(C(F)(F)F)cc4C)cc3)c2n1 [Example 115]
< 10 µM,< 10 µM,> 25 min,> 25 min,,,CCOc1nn(Cc2ccc(-c3nc(C(F)(F)F)cn3CC)cc2)c2nc(-c3c(OC)ncnc3C3CC3)ncc12 [Example 182]
> 10 µM,> 10 µM,> 25 min,> 25 min,,,"CCc1nc2cnc(-c3c(OC)ncnc3C3CC3)nc2n1Cc1ccc(-c2nc(C(F)(F)F)cn2C(C)C)cc1 [Example 205, 2-(4-cyclopropyl-6-methoxypyrimidin-5-yl)-8-ethyl-9-(4-(1-isopropyl-4-(trifluoromethyl)-1H-imidazol-2-yl)benzyl)-9H-purine]"
< 10 µM,> 10 µM,< 25 min,< 25 min,,,COCCOc1ncnc(C2CC2)c1-c1ncc2cnn(Cc3ccc(-n4nc(C(F)(F)F)cc4C)cc3)c2n1 [Example 43]
> 10 µM,> 10 µM,< 25 min,< 25 min,,,CCn1cc(C(F)(F)F)nc1-c1ccc(Cn2ncc3cnc(-c4c(OC)ncnc4OC4CC4)nc32)cc1 [Example 114]
< 10 µM,< 10 µM,< 25 min,< 25 min,,,CCn1cc(C(F)(F)F)nc1-c1ccc(Cn2ncc3cnc(-c4c(OC)cnn4C4CCC4)nc32)cc1 [Example 84]
> 10 µM,> 10 µM,> 25 min,< 25 min,,,CCn1cc(C(F)(F)F)nc1-c1ccc([C@H](C)n2ncc3cnc(-c4c(OC)ncnc4OC)nc32)cc1 [Example 88]
< 10 µM,< 10 µM,< 25 min,< 25 min,,,COCCOc1cc(C(F)(F)F)nn1-c1ccc(Cn2ncc3cnc(-c4c(OC)ncnc4C4CC4)nc32)cc1 [Example 77]
< 10 µM,< 10 µM,> 25 min,> 25 min,,,COc1ncnc(C2CC2)c1-c1ncc2cnn(Cc3ccc(-c4nc(C(F)(F)F)n(C)n4)cc3)c2n1 [Example 85]
> 10 µM,< 10 µM,> 25 min,> 25 min,,,COc1cc(Cn2ncc3cnc(-c4c(OC)ncnc4C4CC4)nc32)ccc1-c1nc(C(F)(F)F)cn1CCF [Example 129]
